Reference: PubChem BioAssay AID330 (DTP/NCI, 2004)
Several values for one entry are separate records, joined by “and”; a condition that tells them apart may be missing. Equal values may be shown once. Toxic doses and inconclusive results are not listed.

System: P388 leukemia ip, CD2F1 mice, survival T/C
Experiment: NCI In Vivo Anticancer Drug Screen. Data for tumor model P388 Leukemia (intraperitoneal) in CD2F1 (CDF1) mice
Conditions: endpoint: median survival time, higher = longer survival
Outline: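 Mice carrying the transplanted tumor received test compound or vehicle. Survival was recorded in each group, and the value is the treated-group measurement divided by that of the vehicle-treated control group.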

[1] = dose: 100.0 mg/kg/injection, schedule: Q01DX001 (ip), vehicle: saline with Tween-80
[2] = dose: 200.0 mg/kg/injection, schedule: Q01DX001 (ip), vehicle: saline with Tween-80
[3] = dose: 50.0 mg/kg/injection, schedule: Q01DX005 (ip), vehicle: Klucel (hydroxypropylcellulose) (HPC)
[4] = dose: 50.0 mg/kg/injection, schedule: Q01DX005 (ip), vehicle: saline with Tween-80
[5] = dose: 0.1 mg/kg/injection, schedule: Q01DX005 (ip), vehicle: water
[6] = dose: 0.2 mg/kg/injection, schedule: Q01DX005 (ip), vehicle: water
[7] = dose: 0.4 mg/kg/injection, schedule: Q01DX005 (ip), vehicle: water
[8] = dose: 0.8 mg/kg/injection, schedule: Q01DX005 (ip), vehicle: water
[9] = dose: 1.6 mg/kg/injection, schedule: Q01DX005 (ip), vehicle: water
[10] = dose: 5.0 mg/kg/injection, schedule: Q01DX005 (ip), vehicle: distilled water + Tween-80
[11] = dose: 10.0 mg/kg/injection, schedule: Q01DX005 (ip), vehicle: distilled water + Tween-80
[12] = dose: 20.0 mg/kg/injection, schedule: Q01DX005 (ip), vehicle: distilled water + Tween-80
[13] = dose: 40.0 mg/kg/injection, schedule: Q01DX005 (ip), vehicle: distilled water + Tween-80
[14] = dose: 80.0 mg/kg/injection, schedule: Q01DX005 (ip), vehicle: distilled water + Tween-80
[15] = dose: 50.0 mg/kg/injection, schedule: Q01DX009 (ip), vehicle: saline
[16] = dose: 100.0 mg/kg/injection, schedule: Q01DX009 (ip), vehicle: saline
[17] = dose: 200.0 mg/kg/injection, schedule: Q01DX009 (ip), vehicle: saline
[18] = dose: 12.5 mg/kg/injection, schedule: Q01DX009 (ip), vehicle: saline
[19] = dose: 25.0 mg/kg/injection, schedule: Q01DX009 (ip), vehicle: saline
[20] = dose: 60.0 mg/kg/injection, schedule: Q01DX005 (ip), vehicle: saline with Tween-80
[21] = dose: 120.0 mg/kg/injection, schedule: Q01DX005 (ip), vehicle: saline with Tween-80
[22] = dose: 240.0 mg/kg/injection, schedule: Q01DX005 (ip), vehicle: saline with Tween-80

For `c1ccc2c(c1)Nc1ccncc1S2`, the T/C (dose: 100.0 mg/kg/injection, schedule: Q01DX009 (ip), vehicle: saline with Tween-80) was 100 % of control, the T/C (dose: 100.0 mg/kg/injection, schedule: Q04DX003 (ip), vehicle: saline with Tween-80) was 100 % of control and the T/C (dose: 200.0 mg/kg/injection, schedule: Q01DX009 (ip), vehicle: saline with Tween-80) was 100 % of control. For the same compound, the T/C (dose: 200.0 mg/kg/injection, schedule: Q04DX003 (ip), vehicle: saline with Tween-80) was 100 % of control and the T/C (dose: 400.0 mg/kg/injection, schedule: Q01DX009 (ip), vehicle: saline with Tween-80) was 100 % of control.

In the case of `CCC1COC(Nc2cccc3c2CCCC3)=N1` (stereo not drawn), the T/C [1] is reported as 95 % of control and the T/C [2] is reported as 90 % of control.

In the case of `CC12CCC3C(CCC4=CC(OC5OC(CO)C(O)C(O)C5O)CCC43C=O)C1(O)CCC2c1ccc(=O)oc1` (stereo not drawn), the T/C (dose: 0.12 mg/kg/injection, schedule: Q01DX009 (ip), vehicle: saline + alcohol) is reported as 103 % of control, the T/C (dose: 0.25 mg/kg/injection, schedule: Q01DX009 (ip), vehicle: saline + alcohol) is reported as 106 % of control and the T/C (dose: 0.5 mg/kg/injection, schedule: Q01DX009 (ip), vehicle: saline + alcohol) is reported as 106 % of control. The T/C (dose: 1.0 mg/kg/injection, schedule: Q01DX009 (ip), vehicle: saline + alcohol) was 103 % of control.

With `CC(C)=C1CC(C)(C)N2CCCC12` (stereo not drawn) the T/C [3] was 100 % of control.

In the case of `COC(=O)C1=C(\OC)c2c(ccc(OC)c2OC)C(=O)N2CCc3cc4c(cc3\C2=C\1C(=O)OC)OCO4`, the T/C (dose: 50.0 mg/kg/injection, schedule: Q04DX002 (ip), vehicle: saline with Tween-80) is reported as 103 % of control, the T/C (dose: 100.0 mg/kg/injection, schedule: Q04DX002 (ip), vehicle: saline with Tween-80) is reported as 105 % of control and the T/C (dose: 200.0 mg/kg/injection, schedule: Q04DX002 (ip), vehicle: saline with Tween-80) is reported as 94 % of control.

`O=C([Se]c1[se]c(=[Se])[se]c1[Se]C(=O)c1ccccc1)c1ccccc1` was tested, and the T/C (dose: 7.5 mg/kg/injection, schedule: Q01DX005 (ip), vehicle: saline with Tween-80) was 97 % of control, the T/C (dose: 15.0 mg/kg/injection, schedule: Q01DX005 (ip), vehicle: saline with Tween-80) was 105 % of control and the T/C (dose: 30.0 mg/kg/injection, schedule: Q01DX005 (ip), vehicle: saline with Tween-80) was 105 % of control. For the same compound, the T/C [4] was 88 % of control.

In the case of `CC(=O)OCc1ccncc1`, the T/C (dose: 12.5 mg/kg/injection, schedule: Q01DX009 (ip), vehicle: distilled water + Tween-80) is reported as 95 % of control, the T/C (dose: 25.0 mg/kg/injection, schedule: Q01DX009 (ip), vehicle: distilled water + Tween-80) is reported as 101 % of control and the T/C (dose: 50.0 mg/kg/injection, schedule: Q01DX009 (ip), vehicle: distilled water + Tween-80) is reported as 102 % of control. For the same compound, the T/C (dose: 100.0 mg/kg/injection, schedule: Q01DX009 (ip), vehicle: distilled water + Tween-80) was 110 % of control, the T/C (dose: 200.0 mg/kg/injection, schedule: Q01DX009 (ip), vehicle: distilled water + Tween-80) was 100 % of control and the T/C (dose: 400.0 mg/kg/injection, schedule: Q01DX009 (ip), vehicle: distilled water + Tween-80) was 92 % of control.

In the case of `O=C1c2ccccc2NC(O)c2cccn21` (stereo not drawn), the T/C [5] is reported as 89 % of control, the T/C [6] is reported as 91 % of control and the T/C [7] is reported as 93 % of control. The T/C [8] was 91 % of control, the T/C [9] was 93 % of control and the T/C [10] was 99 % of control. For the same compound, the T/C [11] was 99 % of control, the T/C [12] was 99 % of control and the T/C [13] was 100 % of control. The T/C [14] was 95 % of control.

In the case of `C=C(C)C1(n2[nH]c(=O)n(-c3ccccc3)c2=O)CCC(C)=CC1=O` (stereo not drawn), the T/C [1] is reported as 102 % of control, the T/C [2] is reported as 95 % of control and the T/C (dose: 400.0 mg/kg/injection, schedule: Q01DX001 (ip), vehicle: saline with Tween-80) is reported as 87 % of control.

For `[NH-]C(CCC(N)=O)C(=O)O.[NH-]C(CCC(N)=O)C(=O)O.[Ni+2]` (stereo not drawn), the T/C (dose: 6.25 mg/kg/injection, schedule: Q01DX005 (ip), vehicle: saline) was 93 % of control and the T/C (dose: 12.5 mg/kg/injection, schedule: Q01DX005 (ip), vehicle: saline) was 96 % of control.

In the case of `Cc1ccc(S(=O)(=O)/C=C/C(=O)c2cccs2)cc1`, the T/C (dose: 100.0 mg/kg/injection, schedule: Q04DX002 (ip), vehicle: saline) is reported as 99 % of control, the T/C (dose: 200.0 mg/kg/injection, schedule: Q04DX002 (ip), vehicle: saline) is reported as 100 % of control and the T/C (dose: 400.0 mg/kg/injection, schedule: Q04DX002 (ip), vehicle: saline) is reported as 107 % of control.

In the case of `C=CCOc1cc2c(cc1Cc1cc(OC)c(OC)c(OC)c1)OCO2`, the T/C (dose: 60.0 mg/kg/injection, schedule: Q01DX005 (ip), vehicle: saline) is reported as 100 % of control and the T/C (dose: 120.0 mg/kg/injection, schedule: Q01DX005 (ip), vehicle: saline) is reported as 99 % of control.

With `O=C(N/N=C/c1ccccc1[OH2+])c1ccncc1.O=C(N/N=C/c1ccccc1[OH2+])c1ccncc1.[Cl-].[Mn+2]` the T/C (dose: 100.0 mg/kg/injection, schedule: Q04DX002 (ip), vehicle: Klucel (hydroxypropylcellulose) (HPC)) was 112 % of control, the T/C (dose: 200.0 mg/kg/injection, schedule: Q04DX002 (ip), vehicle: Klucel (hydroxypropylcellulose) (HPC)) was 107 % of control and the T/C (dose: 400.0 mg/kg/injection, schedule: Q04DX002 (ip), vehicle: Klucel (hydroxypropylcellulose) (HPC)) was 94 % of control.

For `CNC(=S)N=Nc1c(O)[nH]c2ccccc12`, the T/C [15] was 91 % of control, the T/C [16] was 99 % of control and the T/C [17] was 91 % of control.

In the case of `O=[N+]([O-])c1cc2cccc([N+](=O)[O-])c2o1`, the T/C [3] is reported as 100 % of control, the T/C (dose: 100.0 mg/kg/injection, schedule: Q01DX005 (ip), vehicle: Klucel (hydroxypropylcellulose) (HPC)) is reported as 109 % of control and the T/C (dose: 200.0 mg/kg/injection, schedule: Q01DX005 (ip), vehicle: Klucel (hydroxypropylcellulose) (HPC)) is reported as 102 % of control.

`CSC(SC)(SC)c1cc(-c2c(Cl)cccc2Cl)no1` was tested, and the T/C [4] was 93 % of control, the T/C (dose: 100.0 mg/kg/injection, schedule: Q01DX005 (ip), vehicle: saline with Tween-80) was 102 % of control and the T/C (dose: 200.0 mg/kg/injection, schedule: Q01DX005 (ip), vehicle: saline with Tween-80) was 93 % of control.

`O=c1[nH]c(=O)c2ncn(C3OC(CO)C(O)C3O)c2[nH]1.O=c1[nH]c(=O)c2ncn(C3OC(CO)C(O)C3O)c2[nH]1.[NH2-].[NH2-].[Pt+2]` (stereo not drawn) was tested, and the T/C (dose: 6.25 mg/kg/injection, schedule: Q01DX009 (ip), vehicle: saline) was 105 % of control, the T/C [18] was 110 % of control and 102 % of control and the T/C [19] was 92 % of control and 107 % of control. For the same compound, the T/C [15] was 100 % of control and 107 % of control, the T/C (dose: 50.0 mg/kg/injection, schedule: Q04DX003 (ip), vehicle: suspension in saline) was 105 % of control and the T/C [16] was 96 % of control and 116 % of control. For the same compound, the T/C (dose: 100.0 mg/kg/injection, schedule: Q04DX003 (ip), vehicle: suspension in saline) was 110 % of control, the T/C (dose: 200.0 mg/kg/injection, schedule: Q04DX003 (ip), vehicle: suspension in saline) was 120 % of control and the T/C (dose: 400.0 mg/kg/injection, schedule: Q04DX003 (ip), vehicle: water) was 174 % of control.

`Cc1ccc(N2C(=O)C(C)SC2=S)cc1Cl` (stereo not drawn) was tested, and the T/C [18] was 100 % of control, the T/C [19] was 100 % of control and the T/C [15] was 101 % of control and 103 % of control. For the same compound, the T/C [17] was 91 % of control.

With `NC(=O)C1CCCN1C(=O)/C=C\c1ccccc1` (stereo not drawn) the T/C [20] was 109 % of control, the T/C [21] was 112 % of control and the T/C [22] was 101 % of control.

For `CCCCc1c(OC(=O)N(C)C)c(C#N)c2n(C)c3ccccc3n2c1=O`, the T/C [20] was 101 % of control and 86 % of control, the T/C [21] was 95 % of control and the T/C [22] was 93 % of control and 96 % of control.

`Cc1cccc2c1NC(O)c1cccn1C2=O` (stereo not drawn) was tested, and the T/C [5] was 98 % of control, the T/C [6] was 93 % of control and the T/C [7] was 93 % of control. For the same compound, the T/C [8] was 98 % of control, the T/C [9] was 93 % of control and the T/C [10] was 103 % of control. The T/C [11] was 94 % of control, the T/C [12] was 98 % of control and the T/C [13] was 95 % of control. For the same compound, the T/C [14] was 94 % of control.

With `CCCN=Cc1cc(Cc2ccc(O)c(C=NCCC)c2)ccc1O` the T/C (dose: 50.0 mg/kg/injection, schedule: Q04DX003 (ip), vehicle: Klucel (hydroxypropylcellulose) (HPC)) was 123 % of control and the T/C (dose: 100.0 mg/kg/injection, schedule: Q04DX003 (ip), vehicle: Klucel (hydroxypropylcellulose) (HPC)) was 104 % of control and 119 % of control.
